In US8119672B2, “Compounds, compositions and methods for treating or preventing pneumovirus infection and associated diseases” (Microdose Therapeutx, Inc., priority 2002, dated 2012):

Test: Solubility in ethanol/propylene glycol/water (85:10:5)
Format: physicochemical
Settings: R1 in meta position (compound of the invention); ethanol/propylene glycol/water (85:10:5) by volume
Experimental: The solubilities are measured in ethanol/propylene glycol/water (85:10:5) (proportions are by volume).

CCOc1cccc(C(c2cc(C=Nn3nnnc3C)ccc2O)c2cc(C=Nn3nnnc3C)ccc2O)c1 (stereo not drawn) [Example 6, 2,2′-[(3-Ethoxyphenyl)methylene]bis[4-[[(5-methyl-1H-tetrazol-1-yl)imino]methyl]]phenol]
Meta Position Solubiity: 1.85 mg/mL

Cc1nnnn1N=Cc1ccc(O)c(C(c2cccc([N+](=O)[O-])c2)c2cc(C=Nn3nnnc3C)ccc2O)c1 (stereo not drawn) [Example 27, 2,2′-[(3-Nitrophenyl)methylene]bis[4-[[(5-methyl-1H-tetrazol-1-yl)imino]methyl]]phenol]
Meta Position Solubiity: 0.98 mg/mL

3-[[Bis[[5-(5-methyl-1H-tetrazol-1-yl)imino]methyl]-2-hydroxyphenyl]methylene] -N,N-dimethylbenzenesulfonamide [Example 31]
Meta Position Solubiity: 0.08 mg/mL

CCCc1cccc(C(c2cc(C=Nn3nnnc3C)ccc2O)c2cc(C=Nn3nnnc3C)ccc2O)c1 (stereo not drawn) [Example 1, 2,2′-[(3-Propylphenyl)methylene]bis[4-[[(5-methyl-1H-tetrazol-1-yl)imino]methyl]]phenol]
Meta Position Solubiity: 1.9 mg/mL

CCN(CC)c1cccc(C(c2cc(C=Nn3nnnc3C)ccc2O)c2cc(C=Nn3nnnc3C)ccc2O)c1 (stereo not drawn) [Example 20, 2,2′-[[(3-Diethylamino)phenyl]methylene]bis[4-[[(5-methyl-1H-tetrazol-1-yl)imino]methyl]]phenol]
Meta Position Solubiity: 1.45 mg/mL

Cc1nnnn1N=Cc1ccc(O)c(C(c2cccc(N(C)C)c2)c2cc(C=Nn3nnnc3C)ccc2O)c1 (stereo not drawn) [Example 2, 2,2′-[[(3-Dimethylamino)phenyl]methylene]bis[4-[[(5-methyl-1H-tetrazol-1-yl)imino]methyl]]phenol]
Meta Position Solubiity: 2.10 mg/mL
